Assay results taken from patent US10350315B2, “Quinoline-3-carboxamide compounds and their use in diagnosis” (Westfaelische Wihelms-Universitaet Muenster, priority 2014, dated 2019).

Biological target: T1, S100A9 (Mus musculus, UniProt P31725)
T1 construct: from tissue; host or cells: living mice (inflamed ear, joints) and explanted mouse heart, aorta and lungs
T1 sequence (P31725 2-113 limits assumed): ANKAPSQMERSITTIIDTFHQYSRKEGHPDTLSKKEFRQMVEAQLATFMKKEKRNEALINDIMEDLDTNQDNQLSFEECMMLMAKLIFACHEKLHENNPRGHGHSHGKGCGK
Test: LPS-induced acute lung injury (ALI) mouse model, FRI of explanted lungs
Assay type: in vivo, mice
Experimental: FIG. 22: Accumulation of Cy5.5-CES271 in a mouse model of acute lung inflammation (ALI). (A) At different time points after the intranasal application of either 10 pg or 50 pg LPS the local and systemic levels of S100A8/S100A9 are compared to control animals. Exemplary paraffin sections of inflamed and healthy lung tissue, taken at 8 h after LPS (10 pg) application were stained for S100A9-expression. Histological data of control (upper image) and lung inflammation (lower image) confirmed local expression of these proteins. […] 50 pg LPS treated mice injected with glycine saturated Cy5.5 served as perfusion controls. (C) S100A8/S100A9 serum levels of LPS treated and control animals are correlated with the measured Mean Fluorescence Intensity over the lungs (R^2=0.69; n=19; p<0.001).
LPS-induced lung inflammation was elicited via intranasal application of 50 pg or 10 pg of LPS. LPS from Escherichia coli 055:B5 was obtained from Sigma-Aldrich. Directly after the administration of LPS 2 nmol of tracer were injected intravenously. Glycine saturated Cy5.5 served as a perfusion control for CES271-Cy5.5, while Cy5.5-labelled rabbit IgG without relevant specificity served as a control for aS100A9-Cy5.5. Mice were either assigned to fluorescence mediated tomography (FMT) to fluorescence reflectance imaging (FRI). For FRI imaging, the mice were sacrificed at the indicated time points. Afterwards, BALF was obtained and the lungs were fixed with 1% low melt aggarose.
2D FRI lung imaging was performed using the Bruker FX Pro Imaging Station (Bruker Corporation). Excitation light was set to 630 nm using an appropriate bandpass filter. Emission at 700 nm was recorded using a filtre-equipped high-sensitivity (4-million-pixel) cooled charge-coupled device camera. Acquisition time was 5 s for each image.
Mice were intravenously injected with Cy5.5-labelled CES271 (CES271-Cy5.5). The animals underwent optical imaging at various time points after injection. In our blocking experiments each mouse received 2 pmol CES271 1 h before 2 nmol of CES271-Cy5.5 were injected. […]

Substance: 3-ethyl-2((1E,3E,5E)-5-(3-(1-(5-ethyl-4-hydroxy-1-methyl-2-oxo-1,2-dihydroquinolin-3-yl)-1,15-dioxo-2-phenyl-5,8,11-trioxa-2,14-diazanonadecan-19-yl)-1,1-dimethyl-6,8-disulfonato-1H-benzo[e]indol-2(3H)-ylidene)penta-1,3-dien-1-yl)-1,1-dimethyl-1H-benzo[e]indol-3-ium-6,8-disulfonate [Cy5.5-CES271]
- Tracer accumulation in explanted lungs of LPS treated mice (3 and 6 hours after parallel LPS/tracer application, 50 pg LPS intranasal, 2 nmol i.v., n=3, p<0.01): specific tracer accumulation could clearly be delineated
- Ratio of tracer accumulation in the lung parenchyma, LPS treated mice (6 h post induction): up to 2.5
- Correlation (R^2) of S100A8/S100A9 serum levels with Mean Fluorescence Intensity over the lungs (n=19, p<0.001): 0.69
